“Also recorded” adds a separate entry of the source. Square brackets hold non-standard residues; d marks the D form. Ends that are not written are not given here. NMeA = CN[C@@H](C)C(=O)O
Tests used:
C6 cells [1] = assay: In vivo apoptosis assay: peptide-pretreated C6 cells in a diffusion chamber implanted s.c. in rats; set-up: species or system rat; settings: for % Recovery (24 hs) / Percent Recovery: C6 cells; for % Recovery (24 hs): peptide at 5×10^−M, 24 hs in diffusion chamber, % of original inoculum; for Percent Recovery: 24 hours in diffusion chamber
Protocol: (§1) The test for apoptosis in vivo was based on the use of the diffusion chamber described in detail by Resnicoff, M., et al., Cancer Res. 55: 2463-2469 (1995). According to this method, the cells are placed in a diffusion chamber that allows the passage of nutrients, antigens, antibodies, etc., but not of intact cells. The sterilized chamber is loaded with cells and then inserted into the subcutaneous tissue of rats or mice; after 24 hours, (or at other times, depending on the experiment) the chamber is removed and the number of cells in the chamber is determined with a hemocytometer, and expressed as a percentage of the original inoculum. The cells are also stained with trypan blue for viability; in the experience of the inventors, surviving cells are >95% viable.
(§2) For in vivo effects, 5×10^5 cells (C6 and CaOV-3 were both used for these studies) were placed in diffusion chambers and implanted into the s.c. tissue of the animals. Once the skin was sutured, the peptides were injected s.c. next to the chambers at the indicated concentrations in a final volume of 0.2 ml. Twenty-four hours later, the chambers were removed from the animals and the cells were quantitatively recovered.
(from gp100), involved in regression of human melanoma (Kawakami et al. 1994); 2) […], recognized by melanoma-specific human CTL lines (Cox et al, 1994); and 3) […], derived from connexin 37, that induces CTL responses against murine lung carcinoma (Mandelboim, et al., 1994). For each of these peptides, a control peptide having the same amino acid composition, but in scrambled order (controls), was also tested. C6 cells were preincubated with the peptides at a concentration of 10^−5M and transferred to the diffusion chamber (see Methods and Materials). Cell number was determined after 24 hours in the diffusion chamber transplanted into the subcutaneous tissue of rats.
Two of the three peptides were selected for further studies of the effects of mutations on the ability to induce apoptosis. Several point mutations were introduced into the peptide […]. […] Mutations at tyrosine in position 1, or the two prolines in positions 4 and 6, effectively inactivated peptide no. 2. An exception to this observation was seen when the prolines were replaced by an N-methyl amino acid. Mutations at E3 or T8 had little effect, but when both residues were mutated, recovery increased to 77%.
In order to determine the minimum concentration of these peptides that still would induce apoptosis in vivo, C6 cells were preincubated with different concentrations of the […] and D-amino acid […] peptides and recovery of viable cells was determined after 24 hours in the diffusion chamber.

C6 cells [2] = assay: Protection from subsequent challenge with wild type C6 cells; assay type: in vivo, rat
Protocol: Synthetic peptide sequences listed above were tested at 5×10^−M on C6 cells. Tests for apoptosis and for protection from subsequent challenge with C6 cells are described herein. Point mutations are shown in bold characters.

[3] = tested on: CaOV3 cells (human ovarian carcinoma cells); assay: Diffusion chamber assay, CaOV3 cells in mice, peptide injected s.c. next to chamber; assay type: in vivo, mouse; settings: Balb/c mice, 0.2 ml of 0.05 mM peptide s.c. next to chamber, 24 hours
Protocol: as §1, §2
Human ovarian carcinoma cells CaOV3 (Resnicoff, et al. (1993)) were loaded into a diffusion chamber, and the chamber was inserted into the subcutaneous tissue of mice. The animals were then injected, also subcutaneously next to the chamber, with 0.2 ml of a 0.05 mM solution of four different peptides, and the number of cells was determined 24 hours later. […] The control peptide had no effect, and the number of cells more than doubled. CaOV3 cells also undergo apoptosis, as determined by FACS analysis.
CaOV3 cells (human ovarian carcinoma cells, 5×10^5 cells) were placed without any previous treatment into diffusion chambers that were then implanted into the subcutaneous tissue of Balb/c mice. Animals were then injected subcutaneously next to the chambers either with 0.2 ml of a 0.05 mM solution of one of the three test peptides or with 0.2 ml of a 0.05 mM solution of the control peptide.

C6 cells [4] = assay: FACS analysis of apoptotic cells in the diffusion chamber; set-up: species or system rat; settings: C6 cells incubated in vivo for 90 minutes in diffusion chamber
Protocol: In order to determine that the loss of cells upon treatment with active peptides was due to the induction of apoptosis, the presence of apoptotic cells within the diffusion chamber was determined at several time intervals by FACS analysis (Sell, et al. (1995)). FIG. 1 represents a typical experiment using C6 cells. […] In both cases, the cells had been incubated in vivo for 90 minutes in a diffusion chamber as described herein. […] Similar results were obtained at several time intervals thereafter.

C6 cells [5] = assay: Tumorigenesis of C6 cells in nude mice; assay type: in vivo; settings: for Expected Delay: calculated from % cells recovered; for Palpable Tumors: s.c. in nude mice
Protocol: C6 cells pre-incubated with various concentrations (10^−12, 10^−10, 10^−8, and 10^−5 M) of the peptide YLRPGPVTA were injected simultaneously into nude mice and the time of appearance of subcutaneous tumors was determined. In parallel experiments, the percentage of cells killed in the diffusion chamber assay was determined. From the percentage of cells killed, the expected delay in the appearance of tumors in mice was calculated as described previously (Resnicoff, et al., Cancer Res. 55:3739 (1995)). […] The time of appearance of tumors is slightly more delayed than expected from the percentage of cells killed in 24 hours in the diffusion chamber assay, a phenomenon previously observed also with antisense oligodeoxynucleotides to the IGF-IR RNA (Resnicoff, et al., Cancer Res. 55:3739 (1995)).
A similar inhibition of tumorigenesis was observed using the D-amino acid peptide LRLTATGDLL. In this case, the peptide (all D-aa, sequence from Kawakami, et al. (1994)) was injected s.c. into nude mice (0.1 ml, at the indicated concentrations), simultaneously with C6 cells (10^5 cells in 0.1 ml) and next to them. The animals were followed for tumor development. The results were as follows: For C6 cells without peptide injection, the tumors appeared after 4 days; for a peptide injection at 10^−10 to 10^−12 M, tumors appeared after 11 days.
C6 cells were incubated with the synthetic peptide at the indicated final concentrations for 24 hours in serum-free medium before injection into the subcutaneous tissue of seven week-old male Dalb/c nude mice. Percentage recovery was determined using the diffusion chamber assay as described herein. Expected Delay is the number of days after injection before the tumors should become palpable, based on survival in vivo estimated by percentage of cells recovered. […] Three nude mice were used in each experimental condition.

C6/p35 cells = assay: Diffusion chamber apoptosis test on C6 cells expressing baculovirus p35; assay type: in vivo, rat; settings: untreated versus incubated with peptide
Protocol: In addition, one of the common pathways of apoptotic injury is through the ICE proteins ([…] (1996)). The activation of ICE and ICE-like proteins is inhibited by the p35 protein of baculovirus (Clem and Miller (1994)), which can also be functional in mammalian cells (Rabizadeh, et al. (1993). To determine whether the synthetic peptides caused apoptosis through the ICE pathway, a plasmid expressing the p35 protein was stably introduced into C6 cells. C6 and C6/p35 cells were then tested for apoptosis in the diffusion chambers, using the synthetic peptide […]. 2 is a composite picture showing the expression of p35 in the various cell lines, and, below each lane, the percentage of cells recovered from the diffusion chamber.

| Sequence | % Recovery (24 hs) (C6 cells [1]) | Protection from wild type cell challenge (C6 cells [2]) | Percent Recovery [3] | other results |
| --- | --- | --- | --- | --- |
| YLEPAPVTA [point mutant of …] | 70.0% | no |  |  |
| YLEPGAVTA | 260.0% | no | 280% |  |
| YLEPGPATA [point mutant of …] | 11.0% | yes |  |  |
| YLEPGPVAA [point mutant of …] | 9.3% | yes |  |  |
| YLEPGPVKA [point mutant of …] | 12.0% | yes |  |  |
| YLEPGPVTA [MHC Class I peptide recognized by melanoma-specific human CTL lines] | 3.0% | yes | 0.2% | apoptotic cells by FACS analysis (C6 cells [4]): Apoptotic cells are detectable |
| YLEXGXVTA (X: N-Methyl-A) (YLE[NMeA]G[NMeA]VTA) [… with prolines replaced by an N-methyl amino acid] | 6.5% | yes |  |  |
| YLRPGPVRA [double mutant (E3 and T8) of …] | 77.0% | no |  |  |
| YLRPGPVTA [point mutant of …] | 3.5% | yes | 3.0% | Expected Delay (C6 cells [5]; 10^−5 M peptide): 14 days; Expected Delay (C6 cells [5]; 10^−8 M peptide): 11 days; Expected Delay (C6 cells [5]; 10^−10 M peptide): 10 days; Expected Delay (C6 cells [5]; 10^−12 M peptide, days before tumors should become palpable): 8 days; Palpable Tumors (C6 cells [5]; C6 cells pre-incubated with 10^−5 M peptide): 21 days; Palpable Tumors (C6 cells [5]; C6 cells pre-incubated with 10^−8 M peptide): 15 days; Palpable Tumors (C6 cells [5]; C6 cells pre-incubated with 10^−10 M peptide): 14 days; Palpable Tumors (C6 cells [5]; C6 cells pre-incubated with 10^−12 M peptide, days after injection): 11 days; inhibition of tumorigenesis (in words) (C6 cells [5]; C6 cells pre-treated with peptide at 10^−12 to 10^−5 M, nude mice): concentration-dependent inhibition of tumorigenesis; % Recovery (C6 cells [1]; C6 cells incubated with 10^−5 M peptide 24 hours in serum-free medium, diffusion chamber): 0.3%; % Recovery (C6 cells [1]; C6 cells incubated with 10^−8 M peptide 24 hours in serum-free medium, diffusion chamber): 2.1%; % Recovery (C6 cells [1]; C6 cells incubated with 10^−10 M peptide 24 hours in serum-free medium, diffusion chamber): 4.5%; % Recovery (C6 cells [1]; C6 cells incubated with 10^−12 M peptide 24 hours in serum-free medium, diffusion chamber): 18%; Percent Recovery (C6 cells [1]; peptide 10^−5 M): 0.3%; Percent Recovery (C6 cells [1]; peptide 10^−8 M): 2.1%; Percent Recovery (C6 cells [1]; peptide 10^−10 M): 4.5%; Percent Recovery (C6 cells [1]; peptide 10^−12 M): 18%; apoptosis in C6 cells and C6 cells stably transfected with the empty vector (C6 cells [1]; diffusion chamber, treated with peptide): underwent apoptosis; growth of clones expressing the p35 protein in the diffusion chamber (C6/p35 cells): grew in the diffusion chamber equally well whether untreated or incubated with the synthetic peptide; also recorded: grew in the diffusion chamber equally well, whether untreated or incubated with the synthetic peptide |
| YMLDLQPETT [HPV-16 E711-20, MHC Class I peptide derived from Human Papilloma Virus Type 16 (HPV-16) E7 protein] |  |  |  | Recovery (%) (C6 cells [1]; C6 rat glioblastoma cells pre-treated with 50 μM peptide 24 hours in serum-free medium, chamber in rats 24 hours): 13% |
